According to paper PMC12527173, “Cytotoxic, anti-inflammatory, antioxidant, and anti-glyoxalase-I evaluation of chelating substances: In silico and in vitro study” (PLOS One, 2025):

How the values were obtained:
[1] = biological target: T1, human recombinant Glo-I enzyme (rhGlo-I) (Homo sapiens, UniProt Q04760); assay: Glyoxalase-I (Glo-I) enzyme inhibition assay; type: biochemical; details: in vitro; compounds classed as inactive
T1 construct: N-terminal Met and 6-His tag (N); purchased R&D Systems; host or cells: E. coli
T1 sequence (Q04760 2-184 limits assumed): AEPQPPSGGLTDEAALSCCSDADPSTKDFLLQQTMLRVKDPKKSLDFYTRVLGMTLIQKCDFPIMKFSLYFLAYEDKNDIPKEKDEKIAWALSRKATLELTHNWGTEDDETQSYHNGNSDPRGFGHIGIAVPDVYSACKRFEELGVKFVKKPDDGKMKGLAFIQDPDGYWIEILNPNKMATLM
Procedure: Solvents and chemicals were procured from Sigma-Aldrich Co. and Acros (ThermoFisher Scientific, New Jersey, USA). […] The enzyme was obtained from R&D Systems® Corporation in the USA. Synthetic compounds were tested for their inhibitory effects on the enzyme using a 10 mM DMSO stock concentration in triplicates. The manufacturer’s protocol from R & D Systems, Inc. in Minneapolis, MN, USA was followed for the in vitro experiments. The reconstituted Glo-I enzyme (0.5 mg/mL) was thawed after being stored at −70°C in sterile deionized water. […] The monitoring was done at a wavelength of 240 nm for 200 seconds at 37°C. The substrate mixture was freshly concocted with a concentration of 100 mM glutathione and 100 mM methylglyoxal (MG) in assay buffer containing 0.5 M sodium phosphate dibasic/monobasic. It was then left undisturbed at room temperature for 15 minutes […]. The selected compounds for investigation are subsequently produced in testing concentration ranges using a 0.1 M solution of sodium phosphate dibasic/monobasic with a pH range of 7–7.2. The blank contained an assay buffer with MG substrate. The test compounds were combined with human recombinant Glo-I (50 µM) in a 96-well plate to determine their kinetic behavior.

[2] = test system: LPS-primed RAW 264.7 murine macrophages (nitrite / iNOS); assay: Anti-inflammatory (nitrite) determination in LPS-primed macrophages; type: cell-based; details: Mus musculus, RAW264.7; LPS-primed RAW 264.7; nitrite by Griess; 24 h; n = 12; read-out: iNOS- IC50 value
Procedure: The RAW 264.7 mouse macrophage cell line (ATCC® TIB-71) was cultivated in high glucose DMEM with 10% foetal bovine serum (FBS), 100 U/mL penicillin, 100 μg/mL streptomycin, and 100 μg/mL L-glutamate. The cells were incubated at 37°C in a humidified environment with 95% air and 5% CO2. Confluent macrophages (2 x 10^5/well) were cultured with lipopolysaccharide (LPS; 20 μg/mL; Sigma, St. Luis, MO, USA) and indomethacin (25–200 μg/mL) as the positive control, along with various concentrations (5–200 μg/mL) of treatment compounds. The cells were incubated for 24 hours. 100 μL of Griess reagent were combined with 100 μL portions of cell culture medium and left to incubate at room temperature for 10 minutes. The absorbance at a wavelength of 550 nm was measured using a microplate reader, namely the Spectro Scan 80D UV-VIS spectrophotometer manufactured by Sedico Ltd. in Nicosia, Cyprus. The nitrite concentration was assessed by comparing it to a standard curve of sodium nitrite. A cytotoxicity protocol using SRB was conducted to assess the impact of the test substances under study on RAW 264.7 viability.

SMILES	activity against Glo-I (in words) [1]	IC50 [2]
CC(=NO)C(C)=NO [Dimethylglyoxime]	inactive	
Oc1cc(O)c2c(c1)O[C@H](c1cc(O)c(O)c(O)c1)[C@@H](O)C2 [Gallocatechin]	inactive	
Oc1cc(O)c2c(c1)O[C@H](c1ccc(O)c(O)c1)[C@H](O)C2 [(-)Epicatechin]	inactive	
O=C(/C=C/c1ccc(O)c(O)c1)O[C@@H]1C[C@@](OC(=O)/C=C/c2ccc(O)c(O)c2)(C(=O)O)C[C@@H](O)[C@@H]1O [cynarine]	inactive	
CC(c1cc2ccccc2s1)N(O)C(N)=O (centres unmarked) [Zileuton, reference compound]	do not demonstrate efficacy against Glo-I	
Oc1cc(O)c2c(c1)O[C@H](c1ccc(O)c(O)c1)[C@@H](O)C2 [(+)Catechin]	inactive	
Oc1ccc(CC2NCCc3cc(O)c(O)cc32)cc1 (centres unmarked) [Higenamine]	ineffective	
O=C(CCCCCCC(=O)Nc1ccccc1)NO [SAHA, reference compound]	do not demonstrate efficacy against Glo-I	
COc1ccc2c(c1)c(CC(=O)O)c(C)n2C(=O)c1ccc(Cl)cc1 [Indomethacin]		20 nM
[O-][Cl+2]([O-])O [Chloric acid]	inactive	
CCN(CC)C(=O)/C(C#N)=C/c1cc(O)c(O)c([N+](=O)[O-])c1 [Entacapone, reference compound]	loss of activity	
Cc1c(O)c(=O)ccn1C [3-Hydroxy-1,2-dimethyl-4(1h)-pyridone]	inactive	
COc1ccc(C[C@@H](C)[C@@H](C)Cc2ccc(OC)c(OC)c2)cc1OC [Terameprocol]	inactive	
CC(=O)Nc1nnc(S(N)(=O)=O)s1 [acetazolamide, reference compound]	did not exhibit any action against Glo-I	
O=C(/C=C/c1ccc(O)c(O)c1)O[C@@H]1[C@H](O)C[C@@](O)(C(=O)O)C[C@H]1OC(=O)/C=C/c1ccc(O)c(O)c1 [3,4-diaffeoylquinic acid]	inactive	
O=c1cccccc1O [Tropolon]	inactive	
NC(CO)C(=O)NNCc1ccc(O)c(O)c1O (centres unmarked) [Benserazide, reference compound]	ineffective	
